Reference: publication PMC5166496 (International Journal of Biological Sciences, 2016)

Target: T1, SIRT1 (Homo sapiens, UniProt Q96EB6)
T1 sequence (Q96EB6 2-747): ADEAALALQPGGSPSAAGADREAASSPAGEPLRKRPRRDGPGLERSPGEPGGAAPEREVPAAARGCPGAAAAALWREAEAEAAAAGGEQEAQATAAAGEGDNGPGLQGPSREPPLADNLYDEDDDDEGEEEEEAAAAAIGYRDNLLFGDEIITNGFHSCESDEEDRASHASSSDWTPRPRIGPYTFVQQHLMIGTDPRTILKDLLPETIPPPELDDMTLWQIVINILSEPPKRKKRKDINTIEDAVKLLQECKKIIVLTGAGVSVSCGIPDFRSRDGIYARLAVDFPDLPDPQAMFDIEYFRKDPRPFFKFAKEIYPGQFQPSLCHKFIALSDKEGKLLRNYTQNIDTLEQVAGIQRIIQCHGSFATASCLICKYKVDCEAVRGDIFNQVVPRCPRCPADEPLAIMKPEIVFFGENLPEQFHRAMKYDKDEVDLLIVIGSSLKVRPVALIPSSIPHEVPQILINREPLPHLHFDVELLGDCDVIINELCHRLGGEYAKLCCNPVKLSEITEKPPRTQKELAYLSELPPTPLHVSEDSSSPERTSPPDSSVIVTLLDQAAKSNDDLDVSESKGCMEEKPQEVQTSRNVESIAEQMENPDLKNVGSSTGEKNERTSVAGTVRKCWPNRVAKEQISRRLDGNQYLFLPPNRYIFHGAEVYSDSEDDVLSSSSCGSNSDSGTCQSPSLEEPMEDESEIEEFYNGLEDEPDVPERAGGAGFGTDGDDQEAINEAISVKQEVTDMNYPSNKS
Experiment: SensoLyte […] fluorimetric SIRT1 deacetylase activity assay kit
Type: biochemical

CC(C)(C)c1cc(C=C2C(=O)NC(=S)NC2=O)cc(C(C)(C)C)c1O [MHY2256, 5-(3,5-Di-tert-butyl-4-hydroxybenzylidene)-2-thioxodihydropyrimidine-4,6(1H,5H)-dione]
IC50: 270 µM
